The source made the active and inactive calls.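 The calls were made as follows: active = tumour findings in long-term animal cancer tests in more than one sex, species or organ; inactive = no tumour finding and more than one negative test.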
Assay: DSSTox (CPDBAS) Carcinogenic Potency Database Summary MultiCellCall Results
Conditions: animal carcinogenicity bioassays, multi-cell call summary
Text: The Carcinogenic Potency Database (CPDB) is a unique and widely used international resource of the results of over 6500 chronic, long-term animal cancer tests on over 1500 chemical substances. The CPDB provides easy access to the bioassay literature, with qualitative and quantitative analyses of both positive and negative experiments that have been published over the past 50 years in the general literature and by the National Cancer Institute/National Toxicology Program. The CPDB standardizes the diverse literature of cancer bioassays that vary widely in protocol, histopathological examination and nomenclature, and in the published author's choices of what information to provide in their papers. Results are reported in the CPDB for tests in rats, mice, hamsters, dogs, and nonhuman primates, and are based on the most positive result among all experiments for each sex-species. The DSSTox CPDBAS (all species) file incorporates data from the CPDB Summary Tables for the full list of over 1500 chemical substances tested in at least one species. A summary MultiCellCall, based on experimental bioassay results of one or more species, is provided in the DSSTox CPDBAS file (see Source URL) for more than 1150 chemical substances.
Associated TD50 values and tumor site details for the relevant species/sex experiment supporting the overall CPDBAS MultiSiteCall are provided in the full DSSTox CPDBAS file (see Comment) and the corresponding CPDBAS Species Bioassay in PubChem. ActivityScore is computed as follows: multispecies=50, multisex=30, multisite=20, with combination scores computed as sums of these values, e.g. multispecies+multisite=70.

| Structure (SMILES) | outcome |
| --- | --- |
| Clc1ccc(-c2ccc(Cl)c(Cl)c2Cl)c(Cl)c1Cl | active; multisite active; multisex active |
| O=NN1CCCCC1c1cccnc1 (configuration not stated) | active; multisex active |
| C=C1C(CCl)(CCl)C2(Cl)C(Cl)C(Cl)C1(Cl)C2(Cl)Cl (configuration not stated) | active; multisex active |
| NC(=O)c1cccnc1 | inactive; multisex inactive |
| CN(N=O)C(=O)NCCC[C@H](N)C(=O)O | active; multisite active; multisex active |
| CCCCCCCCCCC(C)c1ccc(S(=O)(=O)O)cc1 (configuration not stated) | inactive; multisex inactive |
| O=[As]O | inactive; multispecies inactive |
| CCCCOC(=O)COc1ccc(Cl)cc1Cl | inactive; multisex inactive |
| [Cd+2].[Cl-].[Cl-] | active; multisite active; multisex active |
| O.O=S(=O)([O-])[O-].[Mn+2] | inactive; multisex inactive; multispecies inactive |
| NC(N)=O | inactive; multisex inactive; multispecies inactive |
| CN(C)[C@@H]1C(=O)C(C(N)=O)=C(O)[C@@]2(O)C(=O)C3=C(O)c4c(O)cccc4[C@@](C)(O)[C@H]3C[C@@H]12 | inactive; multisex inactive; multispecies inactive |
| NNc1ccccc1 | active; multisex active |
| Cn1c(=O)c2c(ncn2C)n(C)c1=O | inactive; multisex inactive; multispecies inactive |
| FC(F)=C(F)F | active; multisite active; multisex active; multispecies active |
| O=S1(=O)CCCO1 | active; multisite active; multisex active |
| Clc1c(Cl)c(Cl)c(Cl)c(Cl)c1Cl | active; multisite active; multisex active; multispecies active |
| CC(C)(C)NC[C@H](O)COc1cccc2c1CCCC2=O | inactive; multisex inactive; multispecies inactive |
| C=Cc1cccc[n+]1[O-] | inactive; multispecies inactive |
| Oc1cccc2cccnc12.Oc1cccc2cccnc12.[Cu] | inactive; multisex inactive |
| CC(=O)C(N=Nc1ccc(-c2ccc(N=NC(C(C)=O)C(=O)Nc3ccccc3)c(Cl)c2)cc1Cl)C(=O)Nc1ccccc1 (configuration not stated) | inactive; multisex inactive; multispecies inactive |
| O=C1NCCN1 | inactive; multisex inactive |
| C[C@]12CC[C@H](OS(=O)(=O)O)CC1=CC[C@@H]1[C@@H]2CC[C@]2(C)C(=O)CC[C@@H]12 | inactive; multisex inactive |

| Structure (SMILES) | outcome |
| --- | --- |
| NC(=S)Nc1cccc2ccccc12 | inactive; multisex inactive |
| S=C1NCCN1 | active; multisite active; multisex active; multispecies active |
| C=CCO | inactive; multisex inactive |
| O=CCCCC=O | inactive; multisex inactive; multispecies inactive |
| CC(=O)Nc1ccc(CC(=O)O)cc1 | inactive; multisex inactive; multispecies inactive |
| CC(C)C(C(=O)OC(C#N)c1cccc(Oc2ccccc2)c1)c1ccc(Cl)cc1 (configuration not stated) | inactive; multisex inactive; multispecies inactive |
| O=C1c2cccc(O)c2C(=O)c2c(O)cccc21 | active; multisite active; multispecies active |
| Nc1ccc2ccccc2c1S(=O)(=O)O | inactive; multisex inactive |
| FC(F)OC(F)(F)C(F)Cl (configuration not stated) | inactive; multisex inactive |
| CN1[C@@H]2CC[C@H]1CC(OC(=O)C(CO)c1ccccc1)C2 (some centres not stated) | inactive; multisex inactive |
| O=C(O)C(Cl)(Cl)Cl | active; multisex active |
| CCCCC(CC)COC(=O)COc1ccc(Cl)cc1Cl (configuration not stated) | inactive; multisex inactive |
| Nc1cc(Cl)c(-c2cc(Cl)c(N)cc2Cl)cc1Cl | inactive; multisex inactive; multispecies inactive |
| CCSCCC(N)C(=O)O (configuration not stated) | active; multisex active; multispecies active |
| CN1CCCC1=O | active; multisex active |
| Cc1cc(O)c2c(c1O)C(=O)C13C(=C2O)C(=O)C2C(O)C1C1C(O)C3C(=O)C3=C(O)c4c(O)cc(C)c(O)c4C(=O)C321 (configuration not stated) | active; multisex active |
| NCCNc1cccc2ccccc12 | inactive; multisex inactive; multispecies inactive |
| NC(N)=NC(N)=NCCc1ccccc1 | inactive; multisex inactive; multispecies inactive |
| O=c1cc[nH]c(=S)[nH]1 | active; multisite active; multisex active; multispecies active |
| Clc1ccc(Cl)cc1 | active; multisite active; multisex active; multispecies active |
| O=CCBr | inactive; multisex inactive |
| C[C@@H]1C/C=C/C=C/C=C/C=C/[C@H](O[C@@H]2O[C@H](C)[C@@H](O)[C@H](N)[C@@H]2O)C[C@@H]2O[C@](O)(C[C@@H](O)C[C@H]3O[C@@H]3/C=C/C(=O)O1)C[C@H](O)[C@H]2C(=O)O | inactive; multisex inactive |
| CC(O)CN(N=O)C(=O)NCCCl (configuration not stated) | active; multisex active |

| Structure (SMILES) | outcome |
| --- | --- |
| CNc1ccc(N(CCO)CCO)cc1[N+](=O)[O-] | active; multisite active; multisex active; multispecies active |
| C=CC=O | inactive; multisex inactive; multispecies inactive |
| Cc1ccc(N=Nc2c(O)c(S(=O)(=O)O)cc3ccc(S(=O)(=O)O)cc23)c(C)c1 | active; multisex active; multispecies active |
| Nc1nc(N)c2nc(-c3ccccc3)c(N)nc2n1 | active; multisex active |
| C=CC#N | active; multisite active; multisex active |
| C1C2OC2C2C1C1CC2C2OC12 (configuration not stated) | inactive; multisex inactive; multispecies inactive |
| CCCCN(CCCC)N=O | active; multisite active; multispecies active |
| CC(N)Cc1ccccc1 (configuration not stated) | inactive; multisex inactive; multispecies inactive |
| Cn1cnc([N+](=O)[O-])c1Sc1ncnc2nc[nH]c12 | active; multisite active |
| CCOC(=O)[C@H](CCc1ccccc1)N[C@@H](C)C(=O)N1Cc2ccccc2C[C@H]1C(=O)O | inactive; multisex inactive; multispecies inactive |
| COC(=O)C1=CCCN(C)C1 | active; multisite active; multisex active |
| NCCCCCCCCCCC(=O)O | active; multisite active |
| Nc1cc(Cl)c(N)c(Cl)c1 | active; multisex active |
| CC(C)(C)O | active; multisite active; multisex active; multispecies active |
| CCOP(=S)(OCC)Oc1nc(Cl)c(Cl)cc1Cl | inactive; multisex inactive |
| FC(Cl)(Cl)Cl | inactive; multisex inactive; multispecies inactive |
| NC(=O)N(CC(=O)O)N=O | active; multisite active; multisex active |
| Brc1cc(Br)c2cccnc2c1 | inactive; multisex inactive |
| Cc1noc(NS(=O)(=O)c2ccc(N)cc2)c1C | inactive; multisex inactive; multispecies inactive |
| COc1cc(-c2ccc(N=Nc3c(S(=O)(=O)O)cc4cc(S(=O)(=O)O)cc(N)c4c3O)c(OC)c2)ccc1N=Nc1c(S(=O)(=O)O)cc2cc(S(=O)(=O)O)cc(N)c2c1O | active; multisite active; multisex active |
| COc1ccc(N)cc1N | active; multisite active; multisex active; multispecies active |
| C=C/C=N/O | inactive; multisex inactive |
| C/C=N/N(C)C=O | active; multisite active; multisex active |

| Structure (SMILES) | outcome |
| --- | --- |
| CC(=O)[O][Hg][c]1ccccc1 | inactive; multisex inactive |
| ClC(Cl)Br | active; multisite active; multisex active; multispecies active |
| C/C=C/C=C/C=O | active; multisex active; multispecies active |
| O=C(Nc1ccc([N+](=O)[O-])cc1Cl)c1cc(Cl)ccc1O | inactive; multisex inactive; multispecies inactive |
| CC#N | inactive; multisex inactive; multispecies inactive |
| COP(=S)(OC)SCn1nnc2ccccc2c1=O | inactive; multisex inactive; multispecies inactive |
| CN(C)C(=S)[S][Bi]([S]C(=S)N(C)C)[S]C(=S)N(C)C | inactive; multisex inactive |
| Cc1cc(OC(=O)N(C)C)n(C(C)C)n1 | inactive; multisex inactive |
| FC(F)(Cl)C(F)(Cl)Cl | inactive; multisex inactive |
| Cn1cc(C(=O)O)c(=O)c2ccc(/C=C/c3ccc([N+](=O)[O-])o3)nc21 | active; multisite active |
| CC(=O)NNc1ccc(CO)cc1 | active; multisite active; multisex active |
| CC(CN1CC(=O)NC(=O)C1)N1CC(=O)NC(=O)C1 (configuration not stated) | active; multisite active; multispecies active |
| S=C(SN1CCOCC1)N1CCOCC1 | active; multisite active; multisex active |
| Cc1ccc2c(-c3cccc(O)c3)nc(=O)n(C(C)C)c2c1 | inactive; multisex inactive; multispecies inactive |
| C=CCN(CC(C)O)N=O (configuration not stated) | active; multisite active |
| ClC(Cl)Cl | active; multisite active; multisex active; multispecies active |
| Cc1c(-c2cnccn2)ssc1=S | inactive; multisex inactive |
| CC(=O)OCc1ccccc1 | active; multisite active; multisex active |
| COC(C(=O)O)c1ccccc1 (configuration not stated) | inactive; multisex inactive |
| CN(CCCC(=O)c1cccnc1)N=O | active; multisite active |
| CN1C(=O)CN=C(c2ccccc2)c2cc(Cl)ccc21 | inactive; multisex inactive; multispecies inactive |
| Cc1cc2ncccc2c2nc(N)n(C)c12 | active; multisite active; multisex active |
| C/[N+]([O-])=N/CO[C@@H]1O[C@H](CO)[C@@H](O)[C@H](O)[C@H]1O | active; multisite active; multispecies active |
